According to patent US20240058464A1 (Fortis Therapeutics, Inc., priority 2021, published 2024):
Read-outs that look alike come from different tables or passages of the source.

Columns and labels:
[1] = system: CD46 expression; assay: CD46 expression by RNA-sequencing in unpaired pre-treatment and post-treatment tumor biopsies; type: in vivo, human; conditions: for CD46 expression diff: Post minus Pre, unpaired biopsies, log2-transformed counts; for CD46 expression Percentage change: post- vs pre-treatment unpaired biopsies; for CD46 expression Post: post-treatment biopsies, unpaired, RNA-seq log2-transformed normalized counts
[2] = system: CD46 expression
[3] = system: CD46 expression; assay: CD46 expression by RNA-sequencing in paired tumor biopsies before and after therapy; conditions: paired biopsies; for CD46 expression, Pre-Treatment Biopsy / CD46 expression, Post-Treatment Biopsy: RNA-seq log2-transformed counts;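 as to all read-outs here: FFPE human tumor biopsies, exome-capture RNA-seq, reads aligned to GRCh37, counts normalized for GC content, length and depth, summed per gene, log2-transformed, samples paired before versus after therapy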
[4] = Head and Neck Squamous Cell Carcinoma

Compound: C=C1C[C@@H]2[C@H](CC[C@]3(C)C(=O)CC[C@@H]23)[C@@]2(C)C=CC(=O)C=C12 [exemestane]
- CD46 expression diff ([1]; Breast Cancer): 0.11
- CD46 expression Percentage change ([1]; Breast Cancer): 1.8%
- CD46 expression Post ([1]; Breast Cancer): 6.50
- CD46 expression, Post-Treatment Biopsy [2]: 6.37
- CD46 expression, Pre-Treatment Biopsy [2]: 6.41
- CD46 expression diff (post minus pre) ([2]; Breast Cancer, paired biopsies): −0.04
- Percent Change in CD46 expression ([2]; Breast Cancer, paired biopsies): 0.5%

Compound: pembrolizumab
- CD46 expression diff (post minus pre) ([3]; Breast Cancer): −0.11
- Percent Change in CD46 expression ([3]; Breast Cancer): −1.7%
- CD46 expression, Pre-Treatment Biopsy ([3]; Breast Cancer): 6.28
- CD46 expression diff (post minus pre) ([3]; Melanoma): 0.03
- Percent Change in CD46 expression ([3]; Melanoma): 0.6%
- CD46 expression, Post-Treatment Biopsy ([3]; Melanoma): 5.25
- CD46 expression, Pre-Treatment Biopsy ([3]; Melanoma): 5.22
- CD46 expression diff (post minus pre) ([3]; Non-Small Cell Lung Cancer): −0.24
- Percent Change in CD46 expression ([3]; Non-Small Cell Lung Cancer): −3.8%
- CD46 expression, Post-Treatment Biopsy ([3]; Non-Small Cell Lung Cancer): 6.00
- CD46 expression, Pre-Treatment Biopsy ([3]; Non-Small Cell Lung Cancer): 6.23
- CD46 expression diff ([1]; Bladder Cancer): 0.06
- CD46 expression Percentage change ([1]; Bladder Cancer): 0.9%
- CD46 expression Post ([1]; Bladder Cancer): 6.18
- CD46 expression diff ([1]; Breast Cancer): −0.13
- CD46 expression Percentage change ([1]; Breast Cancer): −2.2%
- CD46 expression Post ([1]; Breast Cancer): 5.95
- CD46 expression diff ([1]; Colorectal Cancer): 0.30
- CD46 expression Percentage change ([1]; Colorectal Cancer): 4.8%
- CD46 expression Post ([1]; Colorectal Cancer): 6.50
- CD46 expression diff ([1]; Esophageal Cancer): 0.09
- CD46 expression Percentage change ([1]; Esophageal Cancer): 1.4%
- CD46 expression Post ([1]; Esophageal Cancer): 6.01
- CD46 expression diff [1, 4]: 0.17
- CD46 expression Percentage change [1, 4]: 3.1%
- CD46 expression Post [1, 4]: 5.76
- CD46 expression diff ([1]; Melanoma): 0.00
- CD46 expression Percentage change ([1]; Melanoma): 0.0%
- CD46 expression Post ([1]; Melanoma): 5.30
- CD46 expression diff ([1]; Non-Small Cell Lung Cancer): −0.05
- CD46 expression Percentage change ([1]; Non-Small Cell Lung Cancer): −0.7%
